Patent US20230146455A1, “TREATMENT OF INFLAMMATORY DISEASES WITH PEPTIDES AND PHARMACEUTICAL COMPOSITIONS” (Yuyu Pharma, Inc., priority 2020, published 2023)
“And” between values parts separate entries of the source, which are not always exact repeats. Equal entries are not always repeated. Where a SMILES comes first, the peptide text is derived from it. [ ]: non-standard residue; d: D form. Hyp = O=C(O)[C@@H]1C[C@@H](O)CN1

Experiments:
IFN-gamma = assay: Example 9 Luminex, LPS hPBMCs: IFN-gamma; type: cell-based, human
Method: (§1) Treatment Human PBMCs were pretreated with YY-101, YDE-011 and YDE-043 or reference compound; Xiidra® at various concentration (ranging from 1 nM to 100 uM) for 2 h before stimulation. An equal volume of 0.5% DMSO was used as a vehicle control. Then, the cells were treated with LPS at 5 ug/ml. The supernatants from treated cells were harvested at 24 h and placed in a 96 well for Luminex cytokine & chemokine profiling using a Luminex 200 multiplex assay (Luminex; R&D system, USA).
(§2) The main study arm with triplicate wells per group in a 24-well plate: • 1. Blank • 2. PBMC: 0.5% DMSO • 3. PBMC+LPS (5 ug/ml) • 4. PBMC+YY-101 100 uM • 5. PBMC+YY-101 10 uM • 6. PBMC+YY-101 1 uM • 7. PBMC+YY-101 0.1 uM • 8. PBMC+YY-101 0.01 uM • 9. PBMC+LPS (5 ug/ml)+Xiidra®100 uM • 10. PBMC+LPS (5 ug/ml)+Xiidra® 10 uM • 11. PBMC+LPS (5 ug/ml)+Xiidra® 1 uM • 12. PBMC+LPS (5 ug/ml)+Xiidra®0.1 uM • 13. PBMC+LPS (5 ug/ml)+Xiidra®0.01 uM • 14. PBMC+LPS (5 ug/ml)+Xiidra®0.001 uM • 15. PBMC+LPS (5 ug/ml)+YY-101 100 uM • 16. PBMC+LPS (5 ug/ml)+YY-101 10 uM • 17. PBMC+LPS (5 ug/ml)+YY-101 1 uM • 18. PBMC+LPS (5 ug/ml)+YY-101 0.1 uM • 19. PBMC+LPS (5 ug/ml)+YY-101 0.01 uM • 20. PBMC+LPS (5 ug/ml)+YY-101 0.001 uM • 21. PBMC+LPS (5 ug/ml)+YDE-011 100 uM • 22. PBMC+LPS (5 ug/ml)+YDE-011 10 uM • 23. PBMC+LPS (5 ug/ml)+YDE-011 1 uM • 24. PBMC+LPS (5 ug/ml)+YDE-011 0.1 uM • 25. PBMC+LPS (5 ug/ml)+YDE-011 0.01 uM • 26. PBMC+LPS (5 ug/ml)+YDE-011 0.001 uM • 27. PBMC+LPS (5 ug/ml)+YDE-043 100 uM • 28. PBMC+LPS (5 ug/ml)+YDE-043 10 uM • 29. PBMC+LPS (5 ug/ml)+YDE-043 1 uM • 30. PBMC+LPS (5 ug/ml)+YDE-043 0.1 uM • 31. PBMC+LPS (5 ug/ml)+YDE-043 0.01 uM • 32. PBMC+LPS (5 ug/ml)+YDE-043 0.001 uM
(§3) Multiplex assay was used to measure 30 cytokines and chemokines. The 1:2, 1:10 and 1:200 diluted cell supernatant and serial dilution of the standard were dispensed into a 96 well plate at 50 ul/well. Then, the pre-mixed cocktail of antibody-coated magnetic beads was dispensed at 50 ul/well and incubated at room temperature for 2 h in a horizontal orbital microplate shaker at 800±500 rpm. The beads were washed using a magnetic device to prevent loss. The biotin-antibody was dispensed in 50 ul of each well and incubated at room temperature for 1 h in a shaker at 800±500 rpm. After washing, streptavidin-PE was added at 50 ul/well and incubated at room temperature for 30 min in a shaker under the same conditions. Finally, after washing, wash buffer (100 ul/well) was added to the plate and incubated in a shaker for 2 min. The Luminex™ 200 setting were set according to the manufacturer's protocol. The data was calculated with a standard five-parameter logistic nonlinear regression analysis of the data (xPonent software 4.2, USA). The levels of cytokine/chemokine are normalized to the live cell counts (1×10^5 cells/mL) and presented as concentrations per mL (pg/mL or ng/mL).

CCL20/MIP-3 alpha = assay: Example 9 Luminex, LPS hPBMCs: CCL20/MIP-3 alpha; type: cell-based, human
Method: as §1, §2, §3

[1] = PBMC + LPS(5 ug/ml) + test article 0.001 uM, Mean
[2] = PBMC + LPS(5 ug/ml) + test article 0.001 uM, single replicates
[3] = PBMC + LPS(5 ug/ml) + test article 0.01 uM, Mean
[4] = PBMC + LPS(5 ug/ml) + test article 0.01 uM, single replicates
[5] = PBMC + LPS(5 ug/ml) + test article 0.1 uM, Mean
[6] = PBMC + LPS(5 ug/ml) + test article 0.1 uM, single replicates
[7] = PBMC + LPS(5 ug/ml) + test article 1 uM, Mean
[8] = PBMC + LPS(5 ug/ml) + test article 1 uM, single replicates
[9] = PBMC + LPS(5 ug/ml) + test article 10 uM, Mean
[10] = PBMC + LPS(5 ug/ml) + test article 10 uM, single replicates
[11] = PBMC + LPS(5 ug/ml) + test article 100 uM, Mean
[12] = PBMC + LPS(5 ug/ml) + test article 100 uM, single replicates
[13] = PBMC + LPS(5 ug/ml) + test article 0.001 uM, individual replicate
[14] = PBMC + LPS(5 ug/ml) + test article 0.01 uM, individual replicate
[15] = PBMC + LPS(5 ug/ml) + test article 0.1 uM, individual replicate
[16] = PBMC + LPS(5 ug/ml) + test article 1 uM, individual replicate
[17] = PBMC + LPS(5 ug/ml) + test article 10 uM, individual replicate
[18] = PBMC + LPS(5 ug/ml) + test article 100 uM, individual replicate

CC(C)C[C@H](NC(=O)CNC(=O)[C@H](CC(C)C)NC(=O)[C@H](CCC(N)=O)NC(=O)CNC(=O)[C@@H]1C[C@@H](O)CN1)C(=O)N[C@@H](C)C(=O)NCC(=O)N1CCC[C@H]1C(=O)N[C@@H](CCCCN)C(=O)O [YDE-011] (H-[Hyp]GQLGLAGPK-OH)
Concentration (IFN-gamma) (IFN-gamma; [1]): 773.0 pg/mL
conc/live cell (IFN-gamma) (IFN-gamma; [1]): 143.6 pg/10^5
Concentration (IFN-gamma) (IFN-gamma; [2]): 624.6 pg/mL and 730.3 pg/mL and 964.1 pg/mL
conc/live cell (IFN-gamma) (IFN-gamma; [2]): 138.8 pg/10^5 and 125.9 pg/10^5 and 166.2 pg/10^5
Concentration (IFN-gamma) (IFN-gamma; [3]): 792.2 pg/mL
conc/live cell (IFN-gamma) (IFN-gamma; [3]): 135.8 pg/10^5
Concentration (IFN-gamma) (IFN-gamma; [4]): 773.0 pg/mL and 753.6 pg/mL and 849.9 pg/mL
conc/live cell (IFN-gamma) (IFN-gamma; [4]): 124.7 pg/10^5 and 147.8 pg/10^5 and 134.9 pg/10^5
Concentration (IFN-gamma) (IFN-gamma; [5]): 812.6 pg/mL
conc/live cell (IFN-gamma) (IFN-gamma; [5]): 141.6 pg/10^5
Concentration (IFN-gamma) (IFN-gamma; [6]): 892.0 pg/mL and 753.6 pg/mL and 792.3 pg/mL
conc/live cell (IFN-gamma) (IFN-gamma; [6]): 135.1 pg/10^5 and 150.7 pg/10^5 and 139.0 pg/10^5
Concentration (IFN-gamma) (IFN-gamma; [7]): 987.2 pg/mL
conc/live cell (IFN-gamma) (IFN-gamma; [7]): 196.0 pg/10^5
Concentration (IFN-gamma) (IFN-gamma; [8]): 1088.2 pg/mL and 909.1 pg/mL and 964.1 pg/mL
conc/live cell (IFN-gamma) (IFN-gamma; [8]): 197.9 pg/10^5 and 189.4 pg/10^5 and 200.9 pg/10^5
Concentration (IFN-gamma) (IFN-gamma; [9]): 841.5 pg/mL
conc/live cell (IFN-gamma) (IFN-gamma; [9]): 158.5 pg/10^5
Concentration (IFN-gamma) (IFN-gamma; [10]): 973.6 pg/mL and 861.4 pg/mL and 689.4 pg/mL
conc/live cell (IFN-gamma) (IFN-gamma; [10]): 180.3 pg/10^5 and 148.5 pg/10^5 and 146.7 pg/10^5
Concentration (IFN-gamma) (IFN-gamma; [11]): 534.1 pg/mL
conc/live cell (IFN-gamma) (IFN-gamma; [11]): 88.0 pg/10^5
Concentration (IFN-gamma) (IFN-gamma; [12]): 604.8 pg/mL and 492.8 pg/mL and 504.9 pg/mL
conc/live cell (IFN-gamma) (IFN-gamma; [12]): 99.1 pg/10^5 and 80.8 pg/10^5 and 84.1 pg/10^5
Concentration, CCL20/MIP-3 alpha (CCL20/MIP-3 alpha; [1]): 246.5 pg/mL
MFI, CCL20/MIP-3 alpha (CCL20/MIP-3 alpha; [1]): 263.3
conc/live cell, CCL20/MIP-3 alpha (CCL20/MIP-3 alpha; [1]): 46.9 pg/10^5
Concentration, CCL20/MIP-3 alpha (CCL20/MIP-3 alpha; [13]): 264.2 pg/mL and 223.2 pg/mL and 252.1 pg/mL
MFI, CCL20/MIP-3 alpha (CCL20/MIP-3 alpha; [13]): 284.5 and 235.5 and 270.0
conc/live cell, CCL20/MIP-3 alpha (CCL20/MIP-3 alpha; [13]): 58.7 pg/10^5 and 38.5 pg/10^5 and 43.5 pg/10^5
Concentration, CCL20/MIP-3 alpha (CCL20/MIP-3 alpha; [3]): 255.6 pg/mL
MFI, CCL20/MIP-3 alpha (CCL20/MIP-3 alpha; [3]): 274.2
conc/live cell, CCL20/MIP-3 alpha (CCL20/MIP-3 alpha; [3]): 44.2 pg/10^5
Concentration, CCL20/MIP-3 alpha (CCL20/MIP-3 alpha; [14]): 233.3 pg/mL and 258.8 pg/mL and 274.6 pg/mL
MFI, CCL20/MIP-3 alpha (CCL20/MIP-3 alpha; [14]): 247.5 and 278.0 and 297.0
conc/live cell, CCL20/MIP-3 alpha (CCL20/MIP-3 alpha; [14]): 37.0 pg/10^5 and 41.7 pg/10^5 and 53.8 pg/10^5
Concentration, CCL20/MIP-3 alpha (CCL20/MIP-3 alpha; [5]): 239.4 pg/mL
MFI, CCL20/MIP-3 alpha (CCL20/MIP-3 alpha; [5]): 254.8
conc/live cell, CCL20/MIP-3 alpha (CCL20/MIP-3 alpha; [5]): 42.0 pg/10^5
Concentration, CCL20/MIP-3 alpha (CCL20/MIP-3 alpha; [15]): 238.3 pg/mL and 231.6 pg/mL and 248.4 pg/mL
MFI, CCL20/MIP-3 alpha (CCL20/MIP-3 alpha; [15]): 253.5 and 245.5 and 265.5
conc/live cell, CCL20/MIP-3 alpha (CCL20/MIP-3 alpha; [15]): 36.1 pg/10^5 and 46.3 pg/10^5 and 43.6 pg/10^5
Concentration, CCL20/MIP-3 alpha (CCL20/MIP-3 alpha; [7]): 211.3 pg/mL
MFI, CCL20/MIP-3 alpha (CCL20/MIP-3 alpha; [7]): 221.5
conc/live cell, CCL20/MIP-3 alpha (CCL20/MIP-3 alpha; [7]): 42.2 pg/10^5
Concentration, CCL20/MIP-3 alpha (CCL20/MIP-3 alpha; [16]): 203.6 pg/mL and 208.7 pg/mL and 221.5 pg/mL
MFI, CCL20/MIP-3 alpha (CCL20/MIP-3 alpha; [16]): 212.5 and 218.5 and 233.5
conc/live cell, CCL20/MIP-3 alpha (CCL20/MIP-3 alpha; [16]): 37.0 pg/10^5 and 43.5 pg/10^5 and 46.1 pg/10^5
Concentration, CCL20/MIP-3 alpha (CCL20/MIP-3 alpha; [9]): 230.3 pg/mL
MFI, CCL20/MIP-3 alpha (CCL20/MIP-3 alpha; [9]): 244.0
conc/live cell, CCL20/MIP-3 alpha (CCL20/MIP-3 alpha; [9]): 43.9 pg/10^5
Concentration, CCL20/MIP-3 alpha (CCL20/MIP-3 alpha; [17]): 234.1 pg/mL and 222.3 pg/mL and 234.5 pg/mL
MFI, CCL20/MIP-3 alpha (CCL20/MIP-3 alpha; [17]): 248.5 and 234.5 and 249.0
conc/live cell, CCL20/MIP-3 alpha (CCL20/MIP-3 alpha; [17]): 43.4 pg/10^5 and 38.3 pg/10^5 and 49.9 pg/10^5
Concentration, CCL20/MIP-3 alpha (CCL20/MIP-3 alpha; [11]): 323.4 pg/mL
MFI, CCL20/MIP-3 alpha (CCL20/MIP-3 alpha; [11]): 356.5
conc/live cell, CCL20/MIP-3 alpha (CCL20/MIP-3 alpha; [11]): 53.3 pg/10^5
Concentration, CCL20/MIP-3 alpha (CCL20/MIP-3 alpha; [18]): 342.2 pg/mL and 319.4 pg/mL and 308.7 pg/mL
MFI, CCL20/MIP-3 alpha (CCL20/MIP-3 alpha; [18]): 379.5 and 351.5 and 338.5
conc/live cell, CCL20/MIP-3 alpha (CCL20/MIP-3 alpha; [18]): 56.1 pg/10^5 and 52.4 pg/10^5 and 51.5 pg/10^5
